Source: PMC10861852, “Loss of activation by GABA in vertebrate delta ionotropic glutamate receptors” (Proceedings of the National Academy of Sciences of the …, 2024)
Residue numbers refer to the chain shown, from its start.

Key:
AcaGluD = biological target: T1, AcaGluD (Acanthaster planci, UniProt A0A8B7XXR5); assay: Two-electrode voltage clamp, ligand-gated currents in oocytes; format: cell-based; conditions: for inhibition of GABA-gated current / currents elicited when applied alone / enhancement of glutamate-gated currents: 100 μM; for inhibition of GABA-gated current: coapplied with ~EC30 GABA concentration; for enhancement of glutamate-gated currents: n = 5
T1 sequence (A0A8B7XXR5 24-958): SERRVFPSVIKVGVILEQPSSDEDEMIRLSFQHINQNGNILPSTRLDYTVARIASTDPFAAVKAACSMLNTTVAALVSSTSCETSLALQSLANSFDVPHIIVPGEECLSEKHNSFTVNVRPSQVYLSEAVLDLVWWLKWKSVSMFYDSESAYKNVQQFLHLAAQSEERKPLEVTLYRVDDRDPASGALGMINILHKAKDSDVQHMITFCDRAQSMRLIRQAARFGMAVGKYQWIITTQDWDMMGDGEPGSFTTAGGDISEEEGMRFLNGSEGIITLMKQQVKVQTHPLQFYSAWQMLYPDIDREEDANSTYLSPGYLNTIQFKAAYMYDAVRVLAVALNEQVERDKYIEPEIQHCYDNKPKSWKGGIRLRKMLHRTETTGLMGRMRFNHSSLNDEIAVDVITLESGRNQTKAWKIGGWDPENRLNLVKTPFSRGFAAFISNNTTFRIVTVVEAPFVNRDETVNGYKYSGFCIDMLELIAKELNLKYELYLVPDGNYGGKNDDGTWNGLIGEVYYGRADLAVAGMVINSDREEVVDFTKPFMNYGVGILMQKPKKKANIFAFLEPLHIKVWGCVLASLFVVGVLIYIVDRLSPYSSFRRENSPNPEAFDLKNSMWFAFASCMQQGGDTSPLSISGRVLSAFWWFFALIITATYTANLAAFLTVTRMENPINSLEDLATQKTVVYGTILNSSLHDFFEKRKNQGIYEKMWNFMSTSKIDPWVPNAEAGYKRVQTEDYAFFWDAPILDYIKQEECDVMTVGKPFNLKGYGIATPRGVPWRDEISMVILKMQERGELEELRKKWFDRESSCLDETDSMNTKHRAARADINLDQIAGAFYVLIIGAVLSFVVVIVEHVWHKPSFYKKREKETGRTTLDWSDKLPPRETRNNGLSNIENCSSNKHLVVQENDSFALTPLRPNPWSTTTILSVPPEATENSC

WT RatGluD2 = biological target: T2, WT RatGluD2 (Rattus norvegicus, UniProt Q63226); assay: Two-electrode voltage clamp in oocytes; format: cell-based; conditions: n = 4
T2 construct: expressed in transfected cells; host or cells: Xenopus laevis oocytes injected with mRNA
T2 sequence (Q63226 24-1007): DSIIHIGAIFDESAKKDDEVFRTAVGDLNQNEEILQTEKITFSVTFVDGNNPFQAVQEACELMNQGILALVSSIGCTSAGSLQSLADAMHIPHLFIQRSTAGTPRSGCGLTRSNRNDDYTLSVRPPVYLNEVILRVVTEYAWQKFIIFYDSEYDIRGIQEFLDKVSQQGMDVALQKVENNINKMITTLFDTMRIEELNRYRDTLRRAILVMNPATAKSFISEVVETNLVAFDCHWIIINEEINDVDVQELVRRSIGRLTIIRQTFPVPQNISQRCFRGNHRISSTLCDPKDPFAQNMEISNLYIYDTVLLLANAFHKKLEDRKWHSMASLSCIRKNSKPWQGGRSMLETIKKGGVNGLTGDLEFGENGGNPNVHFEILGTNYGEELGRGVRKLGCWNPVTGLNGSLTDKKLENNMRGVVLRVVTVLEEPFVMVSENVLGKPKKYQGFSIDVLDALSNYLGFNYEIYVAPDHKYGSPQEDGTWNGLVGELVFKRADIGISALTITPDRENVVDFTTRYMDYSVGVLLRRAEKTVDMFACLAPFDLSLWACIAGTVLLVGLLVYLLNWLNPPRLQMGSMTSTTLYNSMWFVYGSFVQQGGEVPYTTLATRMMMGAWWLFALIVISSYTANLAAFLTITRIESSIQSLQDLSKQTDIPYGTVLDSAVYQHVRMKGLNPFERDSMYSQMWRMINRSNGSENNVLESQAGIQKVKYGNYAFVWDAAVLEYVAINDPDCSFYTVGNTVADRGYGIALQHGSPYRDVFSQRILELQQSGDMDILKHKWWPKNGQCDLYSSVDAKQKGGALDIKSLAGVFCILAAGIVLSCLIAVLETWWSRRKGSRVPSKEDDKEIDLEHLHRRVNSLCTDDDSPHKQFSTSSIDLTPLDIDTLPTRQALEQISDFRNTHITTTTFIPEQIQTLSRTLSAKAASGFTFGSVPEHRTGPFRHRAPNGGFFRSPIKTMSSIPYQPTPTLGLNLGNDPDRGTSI

RatGluD2^Lc = biological target: T3, RatGluD2^Lc (Rattus norvegicus, UniProt Q63226, A654T); assay: Two-electrode voltage clamp, inhibition of constitutive current in oocytes; conditions: each n = 4
T3 sequence (Q63226 24-1007 A654T): T2 sequence (Q63226 24-1007) with A631T
Text: (C) Left panels, example recordings of oocytes expressing A654T lurcher-mutant RatGluD2 (RatGluD2Lc) in response to indicated AMPA iGluR antagonists and D-serine. Dashed line, zero current baseline. Right panel, % inhibition at different oocytes (dots) and resulting means (columns).

RatGluD2^5x = biological target: T4, RatGluD2^5x (Rattus norvegicus, UniProt Q63226, A686S/K694R/N720P/P806D/Y613F); assay: Two-electrode voltage clamp, responses to ligands in mutant-expressing oocytes; format: cell-based; conditions: ligands 30 mM
T4 construct: expressed in transfected cells; host or cells: Xenopus laevis oocytes injected with mRNA
T4 sequence (Q63226 24-1007 Y613F/A686S/K694R/N720P/P806D): T2 sequence (Q63226 24-1007) with Y590F, A663S, K671R, N697P, P783D
Text: (§1) If the 10 mutations discussed above drove the loss of function in vertebrate delta iGluRs, one might expect that the latter could be “reawakened” via active invertebrate delta iGluR-like mutations here. We therefore engineered mutant RatGluD2 iGluRs to contain at these positions the equivalent residues from starfish delta iGluRs. These mutants were RatGluD2^5x, containing Y613F, A686S, K694R, N720P, and P806D substitutions (pink in Fig. 6A), and RatGluD2^9x, additionally containing N763K, D753Q, Q786M, and R787V (cyan in Fig. 6A).
(§2) Fig. 6. AcaGluD-like mutations alter RatGluD2 receptor function. (A) D-serine bound RatGluD2 from X-ray structure PDB:2v3u ([13]). Selected amino acid residues are indicated, colored, shown as sticks, and labeled 5×, 9×, 10×, and/or Lc according to the multiple mutants they were incorporated into. 10× mutant included 10×, 9×, and 5× positions. 9× included 9× and 5×. 5× included only 5×. […] (B–E) Example current responses to different neurotransmitter ligands (30 mM) and to pore blocker pentamidine (Pent, 100 μM) in oocytes expressing indicated RatGluD2 mutants. The dashed line indicates zero current baseline. (F) Individual (dots) and mean (columns) responses to ligands in oocytes expressing indicated RatGluD2 mutants (n = 4 to 5).

RatGluD2^9x = biological target: T5, RatGluD2^9x (Rattus norvegicus, UniProt Q63226, A686S/D753Q/K694R/N720P/N763K/P806D/Q786M/R787V/Y613F); assay: as above; format: cell-based; conditions: ligands 30 mM
T5 construct: expressed in transfected cells; host or cells: Xenopus laevis oocytes injected with mRNA
T5 sequence (Q63226 24-1007 Y613F/A686S/K694R/N720P/D753Q/N763K/Q786M/R787V/P806D): T2 sequence (Q63226 24-1007) with Y590F, A663S, K671R, N697P, D730Q, N740K, Q763M, R764V, P783D
Text: as §1, §2

| Structure (SMILES) | inhibition of GABA-gated current (AcaGluD) [%] | effect on oocytes expressing WT RatGluD2 (WT RatGluD2) | inhibition of constitutive currents (RatGluD2^Lc) [%] | currents elicited when applied alone (AcaGluD) | enhancement of glutamate-gated currents (AcaGluD) [%] | further results |
| --- | --- | --- | --- | --- | --- | --- |
| C[C@@H](NCc1cc(Br)cc2[nH]c(=O)c(=O)[nH]c12)P(=O)(O)O [CGP-78608] | 9 ± 3 |  |  |  |  |  |
| O=[N+]([O-])c1cc2nc(O)c(O)nc2cc1[N+](=O)[O-] [DNQX] | 53 ± 3 | no effect | 11 ± 0.2 | elicited no currents | 34 ± 3 |  |
| NS(=O)(=O)c1cccc2c1c([N+](=O)[O-])cc1nc(O)c(O)nc12 [NBQX] | 61 ± 3 | no effect | 9 ± 0.2 | elicited no currents | 34 ± 3 |  |
| N[C@@H](CCC(=O)O)C(=O)O [glutamate] |  |  |  |  |  | current response to ligand (RatGluD2^5x): no responses; current response to ligand (RatGluD2^9x): no responses; EC50 (AcaGluD; 0 Ca2+, n = 4): ~30 mM; maximum ligand-gated current amplitude (AcaGluD; in the presence of 1.8 mM Ca2+): 5.8 ± 0.6 µA; maximum ligand-gated current amplitude (AcaGluD; nominally Ca2+-free solutions): 0.28 ± 0.02 µA |
| O=C(O)c1cc(=O)c2c(Cl)cc(Cl)cc2[nH]1 [5,7-dichlorokynurenic acid] | 11 ± 5 |  |  |  |  |  |
